Data taken from patent publication US9708305B2, “Substituted 1,2,3,4-tetrahydroisoquinoline derivatives for the treatment of hormone-dependent diseases” (UNIVERSITÉ LAVAL, priority 2013, dated 2017).
Several values for one entry are separate records, joined by “and”; a condition that tells them apart may be missing. Equal entries are not always repeated.

Target: T1, STS (Homo sapiens, UniProt P08842)
T1 construct: expressed in transfected cells; host or cells: HEK-293 cells stably transfected with STS (G418 selection), obtained from Dr. Van Luu-The; used as freeze-thaw homogenate
T1 sequence (P08842 22-583): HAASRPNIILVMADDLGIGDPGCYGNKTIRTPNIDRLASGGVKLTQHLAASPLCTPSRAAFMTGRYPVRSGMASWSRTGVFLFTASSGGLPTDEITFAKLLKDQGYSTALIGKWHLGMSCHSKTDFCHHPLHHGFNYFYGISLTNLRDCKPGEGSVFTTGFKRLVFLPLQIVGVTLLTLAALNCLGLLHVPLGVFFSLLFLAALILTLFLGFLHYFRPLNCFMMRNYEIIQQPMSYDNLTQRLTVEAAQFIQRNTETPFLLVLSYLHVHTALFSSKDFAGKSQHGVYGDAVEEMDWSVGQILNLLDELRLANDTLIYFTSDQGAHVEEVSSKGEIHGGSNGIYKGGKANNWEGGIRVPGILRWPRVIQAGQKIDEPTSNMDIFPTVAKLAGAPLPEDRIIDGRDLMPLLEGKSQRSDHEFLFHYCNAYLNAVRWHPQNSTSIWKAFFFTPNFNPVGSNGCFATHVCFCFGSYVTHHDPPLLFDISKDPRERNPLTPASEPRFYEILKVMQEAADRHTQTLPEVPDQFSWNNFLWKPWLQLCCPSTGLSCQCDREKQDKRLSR
Experiment: STS inhibition of libraries 1-EO to 4-EO, homogenate of STS transfected HEK-293 cells
Type: biochemical
Settings: mean ± SEM, triplicate
Protocol: The enzymatic assay was performed using homogenate of STS transfected HEK-293 cells as the source of enzyme activity. The transformation of [^3H]-E1S into [^3H]-E1 was measured using scintillation counting of labeled E1S and E1 in the aqueous and organic phases, respectively. Newly synthesized sulfamate compounds were tested at two concentrations (0.1 μM and 1 μM). Libraries 1-EO and 2-EO were synthesized using the p- and m-benzamide spacers as 1st level of molecular diversity and the same wide variety of secondary amines as 2nd level of diversity (Table 2), which were chosen in a somewhat random fashion while including a different pattern, format and heteroatom. […] Compounds 1-EO-07, 1-EO-09 and 1-EO-10 represent a starting point for optimization, as they show more than 36% of inhibition when tested at a concentration of 0.1 μM. These compounds have relatively hydrophobic substituents compared to the rest of the library members. […] The average log P value for the rest of the library, excluding these three compounds, is 1.93.
This enzymatic assay was carried out according to a procedure previously described for the transformation of substrate [^3H]-E1S (100 μM) into [^3H]-E1 by homogenated HEK-293 cells over-expressing the enzyme activity.^56,73

SMILES | STS inhibition (%) (0.1 μM) | STS inhibition (%) (1 μM)
CN(CCCN1CCCCC1)Cc1cccc(C(=O)N2CCc3ccc(OS(N)(=O)=O)cc3C2)c1 [4-EO-07] | 24.1 ± 0.4% | 30.6 ± 6.9
NS(=O)(=O)Oc1ccc2c(c1)CN(C(=O)c1ccc(CN3CCSCC3)cc1)CC2 [1-EO-03] | 32.3 ± 1.0% | 80.2 ± 0.9
CN(CCCN1CCCCC1)Cc1ccc(C(=O)N2CCc3ccc(OS(N)(=O)=O)cc3C2)cc1 [3-EO-07] | 17.4 ± 12.3% | 40.7 ± 8.6
NS(=O)(=O)Oc1ccc2c(c1)CN(C(=O)c1ccc(CN3CCN(c4ncccn4)CC3)cc1)CC2 [1-EO-06] | 14.7 ± 3.6% | 41.9 ± 0.8
CCN(Cc1ccc(Br)cc1)Cc1ccc(C(=O)N2CCc3ccc(OS(N)(=O)=O)cc3C2)cc1 [3-EO-13] | 78% and 78.2 ± 1.7% | 95.9 ± 0.6
CCCN(CCC)Cc1cccc(C(=O)N2CCc3ccc(OS(N)(=O)=O)cc3C2)c1 [2-EO-10] | 8.3 ± 0.0% | 54.8 ± 1.2
NS(=O)(=O)Oc1ccc2c(c1)CN(C(=O)c1ccc(CN(CCCO)Cc3ccccc3)cc1)CC2 [3-EO-03] | 5.7 ± 4.4% | 64.3 ± 1.6
CN(C)CCCN(Cc1ccccc1)Cc1cccc(C(=O)N2CCc3ccc(OS(N)(=O)=O)cc3C2)c1 [4-EO-05] | 23.8 ± 4.1% | 26.0 ± 8.5
CCN(Cc1ccc(C(=O)N2CCc3ccc(OS(N)(=O)=O)cc3C2)cc1)Cc1ccccn1 [3-EO-14] | 42.5 ± 3.5% | 87.7 ± 0.7
CCN(Cc1ccc(Br)cc1)Cc1cccc(C(=O)N2CCc3ccc(OS(N)(=O)=O)cc3C2)c1 [4-EO-13] | 24.2 ± 4.9% | –
NS(=O)(=O)Oc1ccc2c(c1)CN(C(=O)c1ccc(CN(CCO)Cc3ccccc3)cc1)CC2 [3-EO-02] | 27.9 ± 2.6% | 78.0 ± 1.1
NS(=O)(=O)Oc1ccc2c(c1)CN(C(=O)c1ccc(CN3CCCCC3)cc1)CC2 [1-EO-02] | 11.5 ± 2.4% | 38.3 ± 3.6
CCN(Cc1ccc(F)cc1)Cc1ccc(C(=O)N2CCc3ccc(OS(N)(=O)=O)cc3C2)cc1 [3-EO-17] | 69.1 ± 1.9% | 91.2 ± 2.7
CN1CCN(Cc2ccc(C(=O)N3CCc4ccc(OS(N)(=O)=O)cc4C3)cc2)CC1 [1-EO-04] | 2.9 ± 0.5% | 23.3 ± 1.3
NS(=O)(=O)Oc1ccc2c(c1)CN(C(=O)c1cccc(CN3CCC(Cc4ccccc4)CC3)c1)CC2 [2-EO-07] | 1.4 ± 0.6% | 41.9 ± 2.7
NS(=O)(=O)Oc1ccc2c(c1)CN(C(=O)c1cccc(CN3CCSCC3)c1)CC2 [2-EO-03] | 2.3 ± 0.1% | 39.6 ± 2.8
NS(=O)(=O)Oc1ccc2c(c1)CN(C(=O)c1cccc(CN3CCN(c4ncccn4)CC3)c1)CC2 [2-EO-06] | 1.6 ± 1.6% | 24.4 ± 0.4
NS(=O)(=O)Oc1ccc2c(c1)CN(C(=O)c1cccc(CN(CCCO)Cc3ccccc3)c1)CC2 [4-EO-03] | 25.8 ± 3.9% | 37.3 ± 7.0
NS(=O)(=O)Oc1ccc2c(c1)CN(C(=O)c1cccc(CN3CCc4ccccc4C3)c1)CC2 [4-EO-10] | 24.1 ± 5.6% | 50.2 ± 1.9
NS(=O)(=O)Oc1ccc2c(c1)CN(C(=O)c1ccc(CN3CCC(Cc4ccccc4)CC3)cc1)CC2 [1-EO-07] | – | 81.3 ± 0.5
CCN(Cc1ccc(C(=O)N2CCc3ccc(OS(N)(=O)=O)cc3C2)cc1)Cc1cccc(Br)c1 [3-EO-12] | 80% and 80.2 ± 8.0% | 97.2 ± 0.6
NS(=O)(=O)Oc1ccc2c(c1)CN(C(=O)c1cccc(CN3CCCCC3)c1)CC2 [2-EO-02] | 1.0 ± 5.1% | 11.9 ± 2.6
